Experimental data reported in US6794386B2, “β-amino acid compounds as integrin antagonists” (Bayer Aktiengesellschaft, priority 2000, dated 2004).

Target: T1, VLA-4 (Homo sapiens, UniProt P05556+P13612)
T1 construct: host or cells: Jurkat clone E6-1
Assay: Adhesion of Jurkat cells to immobilized VCAM-1 (domains 1-3)
Format: cell-based
Set-up: scale not given here
Details: adhesion of CFSE-labeled Jurkat cells to recombinant human VCAM-1 (domains 1-3) coated plates; compounds as yielded by solid phase synthesis, purity about 40-90%
Procedure: In Vitro Assay: Adhesion of Jurkat Cells to Immobilized VCAM-1 (Domains 1-3).
Preparation of Fluorescence Labeled Jurkat Cells:
Jurkat cells (American Type Culture Collection, Clone E6-1, ATCC TIB-152) were cultured in RPMI 1640 medium (Nikken Bio Medical Laboratory, CM1101) supplemented with 10% fetal bovine serum (Hyclone, A-1119-L), 100 U/ml penicilin (Gibco BRL, 15140-122) and 100 μg/ml streptomycin (Gibco BRL, 15140-122) in a humidified incubator at 37° C. with 5% CO2.
Jurkat cells were incubated with phosphate balanced solution (PBS, Nissui, 05913) containing 25 μM of 5(-and-6)-carboxyfluorescein diacetate, succinimidyle ester (CFSE, Dojindo Laboratories, 345-06441) for 20 min at room temperature while gently swirling every 5 min. After centrifugation at 1000 rpm for 5 min, the cell pellet was resuspended with adhesion assay buffer at a cell density of 2×10^6 cells/ml. The adhesion assay buffer was composed of 24 mM Tris-HCl (pH 7.4), 137 mM NaCl, 27 mM KCl, 4 mM glucose, 0.1% bovine serum albumin (BSA, Sigma, A9647) and 2 mM MnCl2.
Preparation of VCAM-1 (Extracellular Domains 1-3):
Complementary DNA (cDNA) encoding 7-domain form of VCAM-1 (GenBank accession #M60335) was obtained using Rapid-Screen™ cDNA library panels (OriGene Technologies, Inc) at Takara Gene Analysis Center (Shiga, Japan). The primers used were 5′-CCAAGGCAGAGTACGCAAAC-3′ (sence) and 5′-TGGCAGGTATTATTAAGGAG-3′ (antisense). PCR amplification of the 3-domain VCAM-1 cDNA was perform using Pfu DNA polymerase (Stratagene) with the following sets of primers: (U-VCAMd1-3) 5′-CCATATGGTACCTGATCAATTTAAAATCGAGACCACCCCAGAA-3′; (L-VCAMd1-3) 5′-CCATATAGCAATCCTAGGTCCAGGGGAGATCTCAACAGTAAA-3′. PCR cycle was 94° C. for 45 sec, 55° C. for 45 sec, 72° C. for 2 min, repeating 15 cycles. After the purification of the PCR product, the fragment was digested with KpnI-AvrII. The digested fragment was ligated into pBluescript IISK(−) (Strategene), which was linealized by digesting with KpnI-XhoI. The ligation was followed by transformation to a Dam/Dcm methylase-free E. coli strain SCS110 (Strategene) to create the donor plasmid pH7. To direct VCAM-1 molecule into the insect cell secretory pathway, the VCAM-1 coding sequence was fused to signal peptide sequence of honeybee melittin. The resulting melittin-VCAM fusion was placed in correct orientation to the baculoviris polyhedrin promoter. Baculovirus transfer vector containing first 3-domain form VCAM-1 (pH10) was constructed by ligation of 0.9 kb fragment from AvrII/Klenow/BclI digests of pH7 into SalI/Klenow/BamHI digests of pMelBacB (Invitrogen). Recombinant baculovirus was generated by using Bac-N-Blue™ Transfection kit (Invitrogen) according to the manufacture's instruction. The recombinant virus was amplified by infection to High-Five™ insect cells for 5-6 days, and virus titer was determined by plaque assay.
High-Five™ insect cells were pelleted in a 225 ml conical tube by centrifugation at 1000 rpm for 5 min After discarding the supernatant, the pellet was resuspended in 1.5×10^9 pfu (MOI=5) of high-titer virus solution, followed by incubation for 1.5 hours at room temperature. The cells were pelleted again and washed once in fresh Express Five™ serum free medium. The cells were pelleted again and finally, resuspended in 200 ml of fresh Express Five™ medium, transferred to a 1,000 ml shaker flask, and incubated in a shaker at 27° C., 130 rpm, for 48 hours before the culture supernatant was collected. The purification of 3-domain form of VCAM-1 from the culture supernatant was performed by one-step anion exchange chromatography. Protein concentration was determined by using Coomassie protein assay reagent (Pierce) according to the manufacture's instruction.
Preparation of Microtiter Plates:
Recombinant human VCAM-1 (extracellular domains 1-3) was dissolved at 0.5 μg/ml in PBS. […]

T1 sequence (P13612 34-1032): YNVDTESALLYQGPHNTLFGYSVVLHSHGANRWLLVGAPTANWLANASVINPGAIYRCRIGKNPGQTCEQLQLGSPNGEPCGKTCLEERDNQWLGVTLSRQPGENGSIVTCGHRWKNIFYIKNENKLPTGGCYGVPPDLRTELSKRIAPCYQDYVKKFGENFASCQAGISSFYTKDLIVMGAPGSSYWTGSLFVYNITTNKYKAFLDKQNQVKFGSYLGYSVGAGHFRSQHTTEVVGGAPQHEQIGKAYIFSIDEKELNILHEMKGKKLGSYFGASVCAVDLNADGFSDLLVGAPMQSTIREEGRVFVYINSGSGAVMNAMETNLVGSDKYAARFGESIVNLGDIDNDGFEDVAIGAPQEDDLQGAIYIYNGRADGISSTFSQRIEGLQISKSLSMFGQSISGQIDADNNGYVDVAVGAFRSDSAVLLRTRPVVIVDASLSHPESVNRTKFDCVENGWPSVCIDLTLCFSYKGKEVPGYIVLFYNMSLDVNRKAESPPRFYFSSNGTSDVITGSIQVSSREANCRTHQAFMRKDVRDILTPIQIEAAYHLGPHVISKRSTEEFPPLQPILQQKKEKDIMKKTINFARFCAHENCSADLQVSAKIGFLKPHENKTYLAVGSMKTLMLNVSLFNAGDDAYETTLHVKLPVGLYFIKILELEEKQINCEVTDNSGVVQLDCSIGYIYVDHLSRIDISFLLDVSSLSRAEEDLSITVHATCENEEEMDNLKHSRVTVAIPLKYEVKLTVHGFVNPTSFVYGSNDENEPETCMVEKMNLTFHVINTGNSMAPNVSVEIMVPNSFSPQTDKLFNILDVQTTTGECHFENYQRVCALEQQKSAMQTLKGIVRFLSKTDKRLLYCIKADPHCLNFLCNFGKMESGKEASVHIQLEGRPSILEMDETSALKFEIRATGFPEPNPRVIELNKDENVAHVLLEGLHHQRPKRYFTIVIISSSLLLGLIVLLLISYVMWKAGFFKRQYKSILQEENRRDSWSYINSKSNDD
T1 sequence (P05556 21-798): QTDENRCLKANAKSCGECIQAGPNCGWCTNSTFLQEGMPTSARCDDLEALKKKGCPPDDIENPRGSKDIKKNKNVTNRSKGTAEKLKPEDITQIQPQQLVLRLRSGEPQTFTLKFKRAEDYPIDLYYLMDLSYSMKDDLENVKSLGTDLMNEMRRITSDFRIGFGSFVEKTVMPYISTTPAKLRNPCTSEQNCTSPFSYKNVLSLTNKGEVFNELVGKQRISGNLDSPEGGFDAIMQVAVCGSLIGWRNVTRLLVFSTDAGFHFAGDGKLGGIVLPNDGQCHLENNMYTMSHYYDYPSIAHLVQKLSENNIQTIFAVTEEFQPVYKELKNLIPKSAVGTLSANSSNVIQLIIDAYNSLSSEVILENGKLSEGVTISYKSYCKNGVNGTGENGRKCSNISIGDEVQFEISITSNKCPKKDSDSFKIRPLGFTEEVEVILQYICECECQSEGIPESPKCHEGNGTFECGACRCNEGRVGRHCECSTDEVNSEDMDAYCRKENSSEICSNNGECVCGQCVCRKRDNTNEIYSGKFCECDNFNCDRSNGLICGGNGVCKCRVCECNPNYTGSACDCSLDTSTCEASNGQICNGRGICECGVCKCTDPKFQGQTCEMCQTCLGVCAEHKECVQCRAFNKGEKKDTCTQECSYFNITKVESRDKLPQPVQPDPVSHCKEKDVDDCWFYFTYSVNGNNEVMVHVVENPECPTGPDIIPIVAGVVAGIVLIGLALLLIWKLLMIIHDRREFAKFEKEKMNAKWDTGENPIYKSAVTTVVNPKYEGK

Structure (SMILES)	IC50
Cc1ccc(C(=O)N2CCCC(C(=O)N[C@@H](Cc3ccc(-c4ccc(Cl)cc4Cl)cc3)C(=O)O)C2)cc1 (some centres unmarked) [Example 1.42]	B-C
O=C(N[C@@H](Cc1ccc(-c2ccc(Cl)cc2Cl)cc1)C(=O)O)C1CCCN(C(=O)c2ccc3c(c2)OCO3)C1 (some centres unmarked) [Example 1.43]	C-D
O=C(N[C@@H](Cc1ccc(-c2ccc(Cl)cc2Cl)cc1)C(=O)O)C1CCCN(C(=O)C2CCCCC2)C1 (some centres unmarked) [Example 1.44]	C-D
Cc1cc(Cl)c(CC(=O)N2CCCC(C(=O)N[C@@H](Cc3ccc(-c4ccc(Cl)cc4Cl)cc3)C(=O)O)C2)c(Cl)c1 (some centres unmarked) [Example 1.45]	C-D
Cc1cc(C)c(OC(=O)N2CCCC(C(=O)N[C@@H](Cc3ccc(-c4ccc(Cl)cc4Cl)cc3)C(=O)O)C2)c(C)c1 (some centres unmarked) [Example 1.47]	C-D
O=C(N[C@@H](Cc1ccc(-c2cc(Cl)ccc2Cl)cc1)C(=O)O)C1CCCN(C(=O)Cc2ccccc2)C1 (some centres unmarked) [Example 1.49]	C-D
Cc1ccc(C(=O)N2CCCC(C(=O)N[C@@H](Cc3ccc(-c4cc(Cl)ccc4Cl)cc3)C(=O)O)C2)cc1 (some centres unmarked) [Example 1.51]	C-D
O=C(N[C@@H](Cc1ccc(-c2cc(Cl)ccc2Cl)cc1)C(=O)O)C1CCCN(C(=O)c2ccc3c(c2)OCO3)C1 (some centres unmarked) [Example 1.52]	C-D
O=C(N[C@@H](Cc1ccc(-c2cc(Cl)ccc2Cl)cc1)C(=O)O)C1CCCN(C(=O)C2CCCCC2)C1 (some centres unmarked) [Example 1.53]	C-D
CC1(C)C2CCC1(CS(=O)(=O)N1CCCC(C(=O)N[C@@H](Cc3ccc(-c4ccccc4)cc3)C(=O)O)C1)C(=O)C2 (some centres unmarked) [Example 1.55]	C-D
COC(=O)c1ccccc1S(=O)(=O)N1CCCC(C(=O)N[C@@H](Cc2ccc(-c3ccccc3)cc2)C(=O)O)C1 (some centres unmarked) [Example 1.57]	C-D
O=C(N[C@@H](Cc1ccc(-c2ccccc2)cc1)C(=O)O)C1CCCN(S(=O)(=O)c2ccc3ccccc3c2)C1 (some centres unmarked) [Example 1.58]	C-D
O=C(N[C@@H](Cc1ccc(-c2ccccc2)cc1)C(=O)O)C1CCCN(S(=O)(=O)c2c(Cl)cccc2Cl)C1 (some centres unmarked) [Example 1.59]	C-D
COc1ccc(S(=O)(=O)N2CCCC(C(=O)N[C@@H](Cc3ccc(-c4ccccc4)cc3)C(=O)O)C2)cc1OC (some centres unmarked) [Example 1.60]	C-D
O=C(N[C@@H](Cc1ccc(-c2ccccc2)cc1)C(=O)O)C1CCCN(S(=O)(=O)c2ccccc2C(F)(F)F)C1 (some centres unmarked) [Example 1.61]	C-D
COc1ccc(Cl)cc1S(=O)(=O)N1CCCC(C(=O)N[C@@H](Cc2ccc(-c3ccccc3)cc2)C(=O)O)C1 (some centres unmarked) [Example 1.62]	C-D
O=C(N[C@@H](Cc1ccc(-c2ccccc2)cc1)C(=O)O)C1CCCN(S(=O)(=O)Cc2ccccc2)C1 (some centres unmarked) [Example 1.63]	C-D
O=C(N[C@@H](Cc1ccc(-c2ccccc2)cc1)C(=O)O)C1CCCN(S(=O)(=O)c2cc(Cl)cc(Cl)c2)C1 (some centres unmarked) [Example 1.64]	C-D
Cc1ccc(-c2ccc(C[C@H](NC(=O)C3CCCN(S(=O)(=O)CC45CCC(CC4=O)C5(C)C)C3)C(=O)O)cc2)cc1 (some centres unmarked) [Example 1.65]	C-D

Structure (SMILES)	IC50
Cc1ccc(-c2ccc(C[C@H](NC(=O)C3CCCN(S(=O)(=O)c4ccc(C)cc4)C3)C(=O)O)cc2)cc1 (some centres unmarked) [Example 1.66]	C-D
COC(=O)c1ccccc1S(=O)(=O)N1CCCC(C(=O)N[C@@H](Cc2ccc(-c3ccc(C)cc3)cc2)C(=O)O)C1 (some centres unmarked) [Example 1.67]	C-D
Cc1ccc(-c2ccc(C[C@H](NC(=O)C3CCCN(S(=O)(=O)c4ccc5ccccc5c4)C3)C(=O)O)cc2)cc1 (some centres unmarked) [Example 1.68]	C-D
Cc1ccc(-c2ccc(C[C@H](NC(=O)C3CCCN(S(=O)(=O)c4c(Cl)cccc4Cl)C3)C(=O)O)cc2)cc1 (some centres unmarked) [Example 1.69]	C-D
COc1ccc(S(=O)(=O)N2CCCC(C(=O)N[C@@H](Cc3ccc(-c4ccc(C)cc4)cc3)C(=O)O)C2)cc1OC (some centres unmarked) [Example 1.70]	C-D
Cc1ccc(-c2ccc(C[C@H](NC(=O)C3CCCN(S(=O)(=O)c4ccccc4C(F)(F)F)C3)C(=O)O)cc2)cc1 (some centres unmarked) [Example 1.71]	C-D
COc1ccc(Cl)cc1S(=O)(=O)N1CCCC(C(=O)N[C@@H](Cc2ccc(-c3ccc(C)cc3)cc2)C(=O)O)C1 (some centres unmarked) [Example 1.72]	C-D
Cc1ccc(-c2ccc(C[C@H](NC(=O)C3CCCN(S(=O)(=O)Cc4ccccc4)C3)C(=O)O)cc2)cc1 (some centres unmarked) [Example 1.73]	C-D
Cc1ccc(-c2ccc(C[C@H](NC(=O)C3CCCN(S(=O)(=O)c4cc(Cl)cc(Cl)c4)C3)C(=O)O)cc2)cc1 (some centres unmarked) [Example 1.74]	C-D
COc1ccc(-c2ccc(C[C@H](NC(=O)C3CCCN(S(=O)(=O)CC45CCC(CC4=O)C5(C)C)C3)C(=O)O)cc2)cc1 (some centres unmarked) [Example 1.75]	C-D
COc1ccc(-c2ccc(C[C@H](NC(=O)C3CCCN(S(=O)(=O)c4ccc(C)cc4)C3)C(=O)O)cc2)cc1 (some centres unmarked) [Example 1.76]	C-D
COC(=O)c1ccccc1S(=O)(=O)N1CCCC(C(=O)N[C@@H](Cc2ccc(-c3ccc(OC)cc3)cc2)C(=O)O)C1 (some centres unmarked) [Example 1.77]	C-D
COc1ccc(-c2ccc(C[C@H](NC(=O)C3CCCN(S(=O)(=O)c4ccc5ccccc5c4)C3)C(=O)O)cc2)cc1 (some centres unmarked) [Example 1.78]	C-D
COc1ccc(-c2ccc(C[C@H](NC(=O)C3CCCN(S(=O)(=O)c4c(Cl)cccc4Cl)C3)C(=O)O)cc2)cc1 (some centres unmarked) [Example 1.79]	C-D
COc1ccc(-c2ccc(C[C@H](NC(=O)C3CCCN(S(=O)(=O)c4ccccc4C(F)(F)F)C3)C(=O)O)cc2)cc1 (some centres unmarked) [Example 1.80]	C-D
COc1ccc(-c2ccc(C[C@H](NC(=O)C3CCCN(S(=O)(=O)c4cc(Cl)ccc4OC)C3)C(=O)O)cc2)cc1 (some centres unmarked) [Example 1.81]	C-D
COc1ccc(-c2ccc(C[C@H](NC(=O)C3CCCN(S(=O)(=O)Cc4ccccc4)C3)C(=O)O)cc2)cc1 (some centres unmarked) [Example 1.82]	C-D
COc1ccc(-c2ccc(C[C@H](NC(=O)C3CCCN(S(=O)(=O)c4cc(Cl)cc(Cl)c4)C3)C(=O)O)cc2)cc1 (some centres unmarked) [Example 1.83]	C-D
Cc1ccccc1-c1ccc(C[C@H](NC(=O)C2CCCN(S(=O)(=O)CC34CCC(CC3=O)C4(C)C)C2)C(=O)O)cc1 (some centres unmarked) [Example 1.84]	C-D

Same assay, conditions: adhesion of CFSE-labeled Jurkat cells to recombinant human VCAM-1 (domains 1-3) coated plates; compounds as yielded by solid phase synthesis, purity about 40-90%; read-out: IC50

Structure (SMILES)	IC50
COc1ccccc1C(=O)N1CCCC(C(=O)N[C@@H](Cc2ccc(-c3ccc(Cl)cc3Cl)cc2)C(=O)O)C1 (some centres unmarked) [Example 1.46]	2000 to 10000 nM
O=C(N[C@@H](Cc1ccc(-c2ccc(Cl)cc2Cl)cc1)C(=O)O)C1CCCN(C(=O)OC2CCCC2)C1 (some centres unmarked) [Example 1.48]	2000 to 10000 nM
O=C(N[C@@H](Cc1ccc(-c2cc(Cl)ccc2Cl)cc1)C(=O)O)C1CCCN(C(=O)c2cccc(Cl)c2)C1 (some centres unmarked) [Example 1.50]	2000 to 10000 nM
O=C(N[C@@H](Cc1ccc(-c2cc(Cl)ccc2Cl)cc1)C(=O)O)C1CCCN(C(=O)c2ccccc2Cl)C1 (some centres unmarked) [Example 1.54]	2000 to 10000 nM
Cc1ccc(S(=O)(=O)N2CCCC(C(=O)N[C@@H](Cc3ccc(-c4ccccc4)cc3)C(=O)O)C2)cc1 (some centres unmarked) [Example 1.56]	500 to 2000 nM
Cc1ccc(S(=O)(=O)N2CCCC(C(=O)N[C@@H](Cc3ccc(-c4ccccc4C)cc3)C(=O)O)C2)cc1 (some centres unmarked) [Example 1.85]	500 to 2000 nM
